These results are taken from patent US11078540B2, “Methods of diagnosing and treating cancer in patients having or developing resistance to a first cancer therapy” (DANA-FARBER CANCER INSTITUTE, INC., priority 2010, dated 2021).

One test relates to B-RAF^V600E cell lines. Kind of test: Pharmacologic growth inhibition assays (WST1 viability, GI50, single-dose studies). In kind it is cell-based, human. To be noted: for cell growth, in combination with PLX4720: ectopic COT expression, 1 μM each, versus single-agent PLX4720 up to 10 μM. On the procedure:
Cultured cells were seeded into 96-well plates (3,000 cells per well) for all melanoma cell lines; 1,500 cells were seeded for A375. Twenty-four hours after seeding, serial dilutions of the relevant compound were prepared in DMSO added to cells, yielding final drug concentrations ranging from 100 μM to […], with the final volume of DMSO not exceeding 1%. Cells were incubated for 96 h following addition of drug. Cell viability was measured using the WST1 viability assay (Roche). Viability was calculated as a percentage of control (untreated cells) after background subtraction. A minimum of six replicates were performed for each cell line and drug combination. Data from growth-inhibition assays were modeled using a nonlinear regression curve fit with a sigmoid dose-response. […] Sigmoid-response curves that crossed the 50% inhibition point at or above 10 μM have GI50 values annotated as >10 μM. For single-dose studies, the identical protocol was followed, using a single dose of indicated drug (1 μM unless otherwise noted).

The subject of test [1] is pERK1/2 (T202/Y204), pMEK1/2 (S217/221). Kind of test: Immunoblots and immunoprecipitations of MAPK pathway proteins in treated cells. Format: cell-based, human. As to conditions: for pERK expression, in combination with PLX4720: ectopic COT expression, 1 μM each, versus single-agent PLX4720 up to 10 μM. On the procedure:
Cells were washed twice with ice-cold PBS and lysed with 1% NP-40 buffer [150 mM NaCl, 50 mM Tris pH 7.5, 2 mM EDTA pH 8, 25 mM NaF and 1% NP-40] containing 2× protease inhibitors (Roche) and 1× Phosphatase Inhibitor Cocktails I and II (CalBioChem). Lysates were quantified (Bradford assay), normalized, reduced, denatured (95° C.) and resolved by SDS gel electrophoresis on 10% Tris/Glycine gels (Invitrogen). Protein was transferred to PVDF membranes and probed with primary antibodies recognizing pERK1/2 (T202/Y204), pMEK1/2 (S217/221), MEK1/2, MEK1, MEK2, C-RAF (rabbit host), pC-RAF (pS338) (Cell Signaling Technology; 1:1,000), V5-HRP (Invitrogen; (1:5,000), COT (1:500), B-RAF (1:2,000), Actin (1:1,000), Actin-HRP (1:1,000; Santa Cruz)), C-RAF (mouse host; 1:1,000; BD Transduction Labs), Vinculin (Sigma; 1:20,000), AXL (1:500; R&D Systems). After incubation with the appropriate secondary antibody (anti-rabbit, anti-mouse IgG, HRP-linked; 1:1,000 dilution, Cell Signaling Technology or anti-goat IgG, HRP-linked; 1:1,000 dilution; Santa Cruz), proteins were detected using chemiluminescence (Pierce). Immunoprecipitations were performed overnight at 4° C. in 1% NP-40 lysis buffer, as described above, at a concentration of 1 μg/μl total protein using an antibody recognizing C-RAF (1:50; Cell Signaling Technology). Antibody: antigen complexes were bound to Protein A agarose (25 μL, 50% slurry; Pierce) for 2 hrs. at 4° C. Beads were centrifuged and washed three times in lysis buffer and eluted and denatured (95° C.) in 2× reduced sample buffer (Invitrogen). Immunoblots were performed as above. Phospho-protein quantification was performed using NIH Image J.

The subject of a further test is A375 cells. As to the kind of experiment: High throughput ORF screening: viability of A375 expressing the kinase ORF collection in 1 μM PLX4720 relative to untreated, normalized to MEK1DD (Cell Titer-Glo). Format: cell-based, human.
Another test has as its target T1, COT (Homo sapiens, UniProt P41279).
T1 construct: endogenous in cells; host or cells: RPMI-7951 (ATCC), MAP3K8/COT-amplified, B-RAF V600E melanoma line
As to the kind of experiment: Inhibition of COT kinase activity in RPMI-7951 cells (MEK/ERK phosphorylation immunoblot). Format: cell-based. As to conditions: 1 h treatment. Background: Immunoblotting shows a protein as a band on a membrane.

The next test has as its system COT mRNA. As to the kind of experiment: Quantitative RT-PCR of COT mRNA in lesion-matched biopsies of PLX4032-treated metastatic melanoma patients. Format: in vivo, human. As to conditions: 3 patients with metastatic B-RAF^V600E melanoma, on-treatment vs pre-treatment biopsies. The text has this: Biopsied tumor material consisted of discarded and de-identified tissue that was obtained with informed consent and characterized under protocol 02-017 (paired samples, Massachusetts General Hospital) and 07-087 (unpaired sample, Dana-Farber Cancer Institute). For paired specimens, ‘on-treatment’ samples were collected 10-14 days after initiation of PLX4032 treatment (Table 6).
mRNA was extracted from cell lines and fresh-frozen tumors using the RNeasy kit (Qiagen). Total mRNA was used for subsequent reverse transcription using the SuperScript III First-Strand Synthesis SuperMix (Invitrogen) for cell lines and unpaired tumor samples, and the SuperScript VILO cDNA synthesis kit (Invitrogen) for paired frozen tumor samples. 5 μl of the RT reaction was used for quantitative PCR using SYBR Green PCR Master Mix and gene-specific primers, in triplicate, using an ABI 7300 Real Time PCR System. Primers used for detection are as follows: […]

Procedure for A375 cells: A375 melanoma cells were plated in 384-well microtiter plates (500 cells per well). The following day, cells were spin-infected with the lentivirally-packaged kinase ORF library in the presence of 8 ug/ml polybrene. 48 hours post-infection, media was replaced with standard growth media (2 replicates), media containing 1 μM PLX4720 (2 replicates, 2 time points) or media containing 10 ug/ml blasticidin (2 replicates). After four days and 6 days, cell growth was assayed using Cell Titer-Glo (Promega) according to manufacturer instructions. The entire experiment was performed twice.
Raw luminescence values were imported into Microsoft Excel. Infection efficiency was determined by the percentage of duplicate-averaged raw luminescence in blasticidin selected cells relative to non-selected cells. ORFs with an infection efficiency of less than 0.70 were excluded from further analysis along with any ORF having a standard deviation of >15,000 raw luminescence units between duplicates. To identify ORFs whose expression affects proliferation, we compared the duplicate-averaged raw luminescence of individual ORFs against the average and standard deviation of all control-treated cells via the z-score, or standard score, below,
[formula] where x=average raw luminescence of a given ORF, μ=the mean raw luminescence of all ORFs and σ=the standard deviation of the raw luminescence of all wells. Any individual ORF with a z-score>+2 or <−2 was annotated as affecting proliferation and removed from final analysis. Differential proliferation was determined by the percentage of duplicate-averaged raw luminescence values in PLX4720 (1 μM) treated cells relative to untreated cells. […] MEK1^DD normalized differential proliferation for each individual ORF was averaged across two duplicate experiments, with two time points for each experiment (day 4 and day 6). A z-score was then generated, as described above for average MEK1^DD normalized differential proliferation. ORFs with a z-score of >2 were considered hits and were followed up in the secondary screen.

As for `Cn1cnc2c(F)c(Nc3ccc(Br)cc3Cl)c(C(=O)NOCCO)cc21` [AZD6244], the “cell growth, in combination with PLX4720” value in the test on B-RAF^V600E cell lines is “more effectively than did single-agent PLX4720”. In addition, the “pERK expression, in combination with PLX4720” value in test [1] is on record as “more effectively than did single-agent PLX4720”.
With CCL4, the “Z-SCORE of average differential proliferation (1 μM PLX4720/control)” value in the test on A375 cells (A375 cells expressing the named ORF, relative to mean of all ORFs (44.26%, SD 7.19%)) was −0.13. The “AVERAGE differential proliferation (1 μM PLX4720/control), relative to MEK DD” value with A375 cells (A375 cells expressing the named kinase-related ORF, 1 μM PLX4720 vs untreated control, normalized to MEK DD) came out at 43.30%.
Consider `O=C(NOCC1CC1)c1ccc(F)c(F)c1Nc1ccc(I)cc1Cl` [CI-1040], for which the “sensitivity to MEK inhibitor with ectopic COT expression” value in the test on B-RAF^V600E cell lines (A375 and SKMEL28 cells ectopically expressing COT) is “decreased sensitivity”. Moreover, the “sensitivity of cell lines with aberrant MAP3K8/COT copy number/expression” value in the test on B-RAF^V600E cell lines (B-RAF^V600E cell lines) was “insensitive”. For the same molecule, in the test on B-RAF^V600E cell lines (OUMS-23 and RPMI-7951 cell lines), the “sensitivity to MEK inhibition (growth)” value was “refractory”. For the same molecule, the “cell growth, in combination with PLX4720” value in the test with B-RAF^V600E cell lines is given as “more effectively than did single-agent PLX4720”. Besides, the ERK phosphorylation entry in test [1] (OUMS-23 and RPMI-7951, 1 μM CI-1040) is given as “sustained ERK phosphorylation”. In addition, the “pERK expression, in combination with PLX4720” value in test [1] was “more effectively than did single-agent PLX4720”.
With `CN(c1cccnc1)c1cc2c(Nc3ccc(F)c(Cl)c3)c(C#N)cnc2cn1` [small molecule COT kinase inhibitor, 4-(3-Chloro-4-fluorophenylamino)-6-(pyridin-3-yl-methylamino)-3-cyano-[1,7]-naphthyridine], the “MEK and ERK phosphorylation” value on COT is “dose-dependent suppression”.
As for `CCCS(=O)(=O)Nc1ccc(F)c(C(=O)c2c[nH]c3ncc(-c4ccc(Cl)cc4)cc23)c1F` [PLX4032], the “COT mRNA expression concurrent with treatment” value with COT mRNA was “increased COT mRNA expression”.
